One molecule from ChEMBL document CHEMBL5154721, “Discovery of HDAC6-Selective Inhibitor NN-390 with in Vitro Efficacy in Group 3 Medulloblastoma” (J Med Chem, 2022) can be followed below.

One may read the logP as a log measure of how a compound divides between an organic and an aqueous phase. One may read the IC50 as the concentration that gives 50% inhibition.

SMILES strings stand for the structures. The source made the active and inactive calls. The rule behind the calls is not given here.

Series [1] in a line: Lipophilicity, logP of the compound. The settings on record: octanol/water. Format: physicochemical.
Series [2] has as its target Histone deacetylase 1 (Homo sapiens, UniProt Q13547). The experiment in a line: Inhibition of full length human recombinant HDAC1 expressed in Sf9 baculovirus system using FAM-labeled acetylated peptide as substrate by measuring fluorescence intensity by EMSA method. (Mobility shift assays separate free from complexed probe on a gel.)
For series [3], the target named is T1, Polyamine deacetylase HDAC10 (Homo sapiens, UniProt Q969S8).
T1 sequence (Q969S8 whole entry): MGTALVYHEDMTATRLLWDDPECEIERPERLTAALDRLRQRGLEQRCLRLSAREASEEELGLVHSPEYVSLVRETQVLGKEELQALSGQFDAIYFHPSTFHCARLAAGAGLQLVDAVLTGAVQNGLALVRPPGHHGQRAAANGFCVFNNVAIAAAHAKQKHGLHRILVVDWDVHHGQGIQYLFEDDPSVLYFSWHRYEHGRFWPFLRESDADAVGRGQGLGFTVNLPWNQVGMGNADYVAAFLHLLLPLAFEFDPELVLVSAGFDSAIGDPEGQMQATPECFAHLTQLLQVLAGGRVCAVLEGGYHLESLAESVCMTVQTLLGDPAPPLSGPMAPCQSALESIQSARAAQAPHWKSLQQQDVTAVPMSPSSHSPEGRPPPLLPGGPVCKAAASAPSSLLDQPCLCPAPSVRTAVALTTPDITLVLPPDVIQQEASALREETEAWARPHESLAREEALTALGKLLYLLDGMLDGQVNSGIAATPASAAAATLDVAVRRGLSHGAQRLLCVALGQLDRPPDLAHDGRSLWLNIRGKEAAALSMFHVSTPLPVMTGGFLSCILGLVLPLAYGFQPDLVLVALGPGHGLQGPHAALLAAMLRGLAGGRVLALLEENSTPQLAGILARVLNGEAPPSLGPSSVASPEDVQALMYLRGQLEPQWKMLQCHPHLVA
The series can be described thus: Inhibition of full length human recombinant HDAC10 expressed in Sf9 baculovirus system using FAM-labeled acetylated peptide as substrate by measuring fluorescence intensity.

Series [4] can be described thus: Cytotoxicity against human fetal neuronal stem cells assessed as inhibition of cell growth incubated for 72 hrs measured by spectrophotometer analysis. The class given is toxicity, cell-based, NSC.
Series [5] can be described thus: Cytotoxicity against primary normal human fibroblast cells assessed as inhibition of cell growth incubated for 72 hrs measured by spectrophotometer analysis. Format: toxicity, cell-based.
Series [6] in a line: Cytotoxicity against HUVEC cells assessed as inhibition of cell growth incubated for 72 hrs measured by spectrophotometer analysis. Format: toxicity, cell-based. The settings on record: human.
The target in series [7] is T2, Protein deacetylase HDAC6 (Homo sapiens) (UniProt Q9UBN7).
T2 sequence (whole entry): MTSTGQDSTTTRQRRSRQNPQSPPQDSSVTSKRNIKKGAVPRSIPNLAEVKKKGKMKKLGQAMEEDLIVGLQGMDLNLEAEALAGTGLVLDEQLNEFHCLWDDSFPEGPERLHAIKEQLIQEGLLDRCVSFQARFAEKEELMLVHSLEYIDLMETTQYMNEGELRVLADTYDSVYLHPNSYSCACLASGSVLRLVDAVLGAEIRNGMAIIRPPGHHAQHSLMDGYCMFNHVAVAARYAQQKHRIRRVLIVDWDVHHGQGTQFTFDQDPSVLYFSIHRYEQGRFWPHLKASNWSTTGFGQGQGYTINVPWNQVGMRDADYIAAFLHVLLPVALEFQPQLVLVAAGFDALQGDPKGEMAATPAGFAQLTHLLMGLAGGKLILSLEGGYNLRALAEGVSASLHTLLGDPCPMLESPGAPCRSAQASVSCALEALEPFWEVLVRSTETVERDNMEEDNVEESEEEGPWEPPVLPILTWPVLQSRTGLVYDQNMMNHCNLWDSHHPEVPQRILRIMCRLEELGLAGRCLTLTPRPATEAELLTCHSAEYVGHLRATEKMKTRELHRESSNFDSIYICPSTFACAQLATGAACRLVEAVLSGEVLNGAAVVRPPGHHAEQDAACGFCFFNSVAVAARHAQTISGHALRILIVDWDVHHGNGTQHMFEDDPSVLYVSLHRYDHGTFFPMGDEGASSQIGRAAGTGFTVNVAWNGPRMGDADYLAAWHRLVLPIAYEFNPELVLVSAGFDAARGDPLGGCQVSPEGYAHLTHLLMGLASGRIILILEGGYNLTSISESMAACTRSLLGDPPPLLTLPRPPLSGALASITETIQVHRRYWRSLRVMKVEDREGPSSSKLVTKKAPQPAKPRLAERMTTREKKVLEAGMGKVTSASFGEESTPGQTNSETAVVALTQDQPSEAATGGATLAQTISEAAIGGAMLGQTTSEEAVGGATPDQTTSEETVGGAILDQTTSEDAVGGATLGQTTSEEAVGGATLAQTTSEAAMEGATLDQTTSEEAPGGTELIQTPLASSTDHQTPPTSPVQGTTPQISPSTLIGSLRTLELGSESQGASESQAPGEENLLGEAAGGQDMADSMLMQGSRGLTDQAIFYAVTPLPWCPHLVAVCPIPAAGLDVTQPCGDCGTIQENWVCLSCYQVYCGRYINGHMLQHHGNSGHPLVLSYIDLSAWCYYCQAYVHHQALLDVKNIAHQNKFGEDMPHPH
The experiment in a line: Inhibition of full length human recombinant HDAC6 in human MV4-11 cells assessed as increase in acetylation of histone H3 for 6 hrs by immunofluorescence imaging method. Format: cell-based. As to conditions: dose 0.1-2 µM, DDE = dose-dependent effect.

The target in series [8] is T2, Protein deacetylase HDAC6 (Homo sapiens). The series can be described thus: Inhibition of full length human recombinant HDAC6 in human MV4-11 cells assessed as increase in acetylation of […] for 6 hrs by immunofluorescence imaging method. The class given is cell-based. The settings on record: dose 0.1-2 µM, DDE = dose-dependent effect.
For series [9], the system named is MV4-11. The series can be described thus: Induction of apoptosis in human MV4-11 cells assessed as viable cells at 0.25 uM after 24 hrs by Annexin V/PI staining based flow cytometric analysis (Rvb=58.28%). Format: functional. The settings on record: read-out: Activity.
In series [10] the test system is MV4-11. The series can be described thus: Induction of apoptosis in human MV4-11 cells assessed as early apoptotic cells at 0.25 uM after 24 hrs by Annexin V/PI staining based flow cytometric analysis (Rvb=2%). The class given is functional.
Series [11] relates to MV4-11. The series can be described thus: Induction of apoptosis in human MV4-11 cells assessed as early apoptotic cells at 0.75 uM after 24 hrs by Annexin V/PI staining based flow cytometric analysis (Rvb=2%). The class given is functional.
Series [12] concerns MV4-11. The experiment in a line: Induction of apoptosis in human MV4-11 cells assessed as late apoptotic cells at 0.75 uM after 24 hrs by Annexin V/PI staining based flow cytometric analysis (Rvb=2%). Format: functional.
Series [13] has as its system MV4-11. The experiment in a line: Induction of apoptosis in human MV4-11 cells assessed as viable cells at 1 uM after 24 hrs by Annexin V/PI staining based flow cytometric analysis (Rvb=58.28%). The class given is functional. The settings on record: read-out: Activity. (In flow cytometry, cells or beads pass a laser one at a time.)
Series [14] concerns MV4-11. The experiment in a line: Induction of apoptosis in human MV4-11 cells assessed as early apoptotic cells at 1 uM after 24 hrs by Annexin V/PI staining based flow cytometric analysis (Rvb=2%). The class given is functional.
Series [15] concerns MV4-11. The experiment in a line: Induction of apoptosis in human MV4-11 cells assessed as late apoptotic cells at 2 uM after 24 hrs by Annexin V/PI staining based flow cytometric analysis (Rvb=2%). The class given is functional.
Series [16] has as its system MB002. The experiment in a line: Cytotoxicity against refractory human group 3 SU_MB002 cells. The class given is functional, cell-based.
A short description of series [17]: in vitro. As to conditions: human, MRC9 cells.

Histone deacetylase 1, sequence (Q13547 whole entry): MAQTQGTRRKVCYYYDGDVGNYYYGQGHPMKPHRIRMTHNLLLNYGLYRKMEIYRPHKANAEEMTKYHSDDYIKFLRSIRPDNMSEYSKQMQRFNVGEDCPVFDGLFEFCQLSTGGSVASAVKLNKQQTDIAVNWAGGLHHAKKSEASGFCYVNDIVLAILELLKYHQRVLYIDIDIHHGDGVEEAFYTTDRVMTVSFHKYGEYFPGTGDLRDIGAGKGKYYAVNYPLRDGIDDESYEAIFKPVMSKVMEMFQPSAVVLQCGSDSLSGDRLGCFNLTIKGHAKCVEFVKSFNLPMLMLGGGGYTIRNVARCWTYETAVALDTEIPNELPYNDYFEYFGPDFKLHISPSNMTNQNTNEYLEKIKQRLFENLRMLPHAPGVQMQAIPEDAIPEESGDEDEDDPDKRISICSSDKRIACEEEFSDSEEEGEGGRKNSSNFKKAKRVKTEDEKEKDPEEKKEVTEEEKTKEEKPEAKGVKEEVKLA

As to `CC(C)N(Cc1ccc(C(=O)NO)cc1)S(=O)(=O)c1cc(F)c(F)c(F)c1F`, in series [1], the logP was found to be 3.41. Moreover, the IC50 in series [2] and in series [3] was more than 5 µM throughout. Further, the IC50 at 72 h in series [4] was 5.76 µM; in [5], 12.4 µM; in [6] it was 10.1 µM; in [17] it was more than 50 µM. In addition, the inhibition result in [7] and in series [8] was “Dde” in each case. In [9], the viability at 0.25 µM is 82%. In addition, the Activity came out at 3.6% in series [10]; 2.28% in series [11]; 7.81% in series [12]; 3.32% in [14]; 23.4% in series [15]. The viability at 1 µM in series [13] was found to be 56.3%. Also, the outcome in [16] was Active.
